This note sets out measurements from US6545053B1, “Tricyclic compounds and drug compositions containing same” (Asahi Kasei Kogyo Kabushiki Kaisha, priority 1996, dated 2003).

The target in one assay is T1, human β3 (Homo sapiens, UniProt P13945).
T1 construct: And then full length of human β3 gene was cloned using this fragment as a probe; expressed in transfected cells; host or cells: CHO cells (Chinese hamster ovary), pcDNA3 vector
Put plainly: Human β3-agonist activity (cAMP in CHO cells transfected with human β3 gene). The assay is classed as cell-based. The note with it: for Emax: CHO, read-out: Intrinsic activity (%). As for the experimental part:
Human β3-agonist Activity
Human β3-agonist activity was examined using CHO cells (chinese hamster ovarian cells) to which pcDNA3 (in vitrogen) cells inserted human β3 gene was transfected. Human β3 fragment was obtained by PCR using human fat tissue cDNA (supplied from Clontech) with a β3 primer [Krief et al, J. Clin. Invest.
The cells were cultured in a HAM F-12 medium containing 10% of fetal bovine serum, 400 μg/ml of Geneticin (Gibco BRL). 100 U/ml penicillin and 100 μg/ml streptomycin. 5×10^5 cells were placed on a 6-well plate and cultured for 24 hours, after which the medium was changed to a HAM F-12 medium without serum and was kept for 2 hours. Each test compound was first dissolved in DMSO, and then diluted with a HAM F-12 medium containing 1 mM isobutylmethyl xanthine and 1 mM ascorbic acid. A 10-fold dilution in the range of 10^−5 to 10^−12 M was added into the cell.
After culturing for 30 minutes, culture medium was withdrawn, 0.5 ml of 1 N NaOH was added and was kept for 20 minutes. And then 0.5 ml of 1 N acetic acid was added with subsequent agitation and centrifugation. Finally the concentration of cAMP were analyzed using cAMP EIA KIT (Cayman). […] Isoprotelenol was purchased from Research Biochimicals International.

The test system of another assay is canine adipocytes. Put plainly: Lipolytic activity in canine fatty cell (glycerol release). The note with it: Canis lupus familiaris, Adipocyte; for pEC50: 1 h, glycerol release, canine adipocytes, read-out: ED50 (the source's name); for Emax: read-out: Intrinsic activity (%). The class given is cell-based, dogs. As for the experimental part:
Lipolytic Activity in Canine Fatty Cell
Adipose tissues in the omentum were collected from dogs and minced and washed. Krebs-Ringer buffer solution containing 1 mg/ml Collagenase (Sigma) and 1% of bovine serum albumin was added in an amount of 3 ml per one gram of the tissue. These cells were then incubated at 37° C. for 30 minutes with shaking and then undigested tissues were removed with a nylon filter. The resulting adipocytes were washed four times with Krebs-Ringer buffer, and then the concentration of cells was diluted to 2×10^5/ml with Krebs-Ringer buffer solution containing 4% of bovine serum albumin. These cells were transferred to Eppendorf tubes each in an amount of 300 μl.
Each 300 μl of a culture medium containing the test compounds were added to these tubes and was held at 37° C. for 1 hour whith shaking. Stimulation was stoped by cooling with ice. After centrifugation, the adipocytes were taken off with an aspirator, whereupon the glycerol was determined using F-KIT GLTCEROL (Behringer-Manheim).

[1] abbreviates: cAMP, CHO cells with human β3, read-out: ED50 (the source's name).

pEC50: −log10 of the molar value. Counter-ions that a name gives are not always drawn. Like-named read-outs stand apart in the source and are kept apart here.

T1 sequence (P13945 whole entry, the tested form may be a part): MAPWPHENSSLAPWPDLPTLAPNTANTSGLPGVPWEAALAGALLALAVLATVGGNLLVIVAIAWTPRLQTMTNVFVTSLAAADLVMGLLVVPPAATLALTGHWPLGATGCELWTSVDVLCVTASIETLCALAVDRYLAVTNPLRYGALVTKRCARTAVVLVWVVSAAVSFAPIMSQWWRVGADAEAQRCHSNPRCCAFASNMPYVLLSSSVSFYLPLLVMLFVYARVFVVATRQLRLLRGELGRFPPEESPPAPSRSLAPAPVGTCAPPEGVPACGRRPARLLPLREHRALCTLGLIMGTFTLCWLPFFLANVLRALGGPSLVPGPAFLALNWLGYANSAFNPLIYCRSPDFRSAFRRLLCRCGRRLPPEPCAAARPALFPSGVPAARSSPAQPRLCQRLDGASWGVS

Consider `CS(=O)(=O)Nc1cc(C(O)CNCCOc2ccc3c(c2)sc2ccccc23)ccc1O` (racemic) [Example 38, (±)-N-[5-[2-[2-(Dibenzothiophen-3-yloxy)ethylamino]-1-hydroxyethyl]-2-hydroxyphenyl]methanesulfonamide Hydrochloride], for which the pEC50 at human β3 is 11.22; in the assay on canine adipocytes it was 8.59. The Emax on human β3 is 76%; with canine adipocytes, 103%.

In the case of `CN(C)S(=O)(=O)Nc1cc(C(O)CNCCOc2ccc3c(c2)sc2ccccc23)ccc1O` (racemic) [Example 40, (±)-N′-[5-[2-[2-(Dibenzothiophen-3-yloxy)ethylamino]-1-hydroxyethyl]-2-hydroxyphenyl]-N, N-dimethylsulfamide Hydrochloride], the pEC50 on human β3 is 6.70; in the assay on canine adipocytes it was 7.89. In addition, the figures for the Emax at human β3 and in the assay on canine adipocytes were 97% and 92%, respectively.

As to `CS(=O)(=O)Nc1cccc(C(O)CNCCOc2ccc3c(c2)sc2ccccc23)c1` (racemic) [Example 41, (±)-N-[3-[2-[2-(Dibenzothiophen-3-yloxy)ethlamino]-1-hydroxyethyl]phenyl]methanesulfonamide Hydrochloride], the Emax at human β3 worked out at 63%; with canine adipocytes it was 109%. Further, the pEC50 was 6.22 on human β3 (setting [1]) and 6.62 in the assay on canine adipocytes.

As to `CN(C)S(=O)(=O)Nc1cc(C(O)CNCCOc2ccc3c(c2)oc2ccccc23)ccc1O` (racemic) [Example 43, (±)-N′-[5-[2-[2-(Dibenzofuran-3-yloxy)ethylamino]-1-hydroxyethyl]-2-hydroxyphenyl]-N,N-dimethylsulfamide Hydrochloride], the pEC50 was 7.07 at human β3 and 8.40 with canine adipocytes. Also, the Emax at human β3 turned out to be 104%; in the assay on canine adipocytes, 77%.

`CC(=O)Nc1ccc2c(c1)Cc1cc(OCCNCC(O)c3ccc(O)c(NS(C)(=O)=O)c3)ccc1-2` (racemic) [Example 50, (±)-N-[5-[2-[2-(9H-7-Acetylaminofluoren-2-yloxy)ethylamino]-1-hydroxyethyl]-2-hydroxyphenyl]methanesulfonamide Hydrochloride]: the Emax at human β3 was determined as 85%; in the assay with canine adipocytes it was 112%. Moreover, the pEC50 is 9.03 on human β3 (setting [1]) and 9.72 in the assay on canine adipocytes.

In the case of `CS(=O)(=O)Nc1cc(C(O)CNCCOc2ccc3c(c2)Cc2cc(N)ccc2-3)ccc1O` (racemic) [Example 52, (±)-N-[5-[2-[2-(9H-7-Aminofluoren-2-yloxy)ethylamino]-1-hydroxyethyl]-2-hydroxyphenyl]methanesulfonamide Hydrochloride], the Emax was 78% on human β3 and 100% in the assay with canine adipocytes. The pEC50 was 8.59 at human β3 (setting [1]) and 9.42 with canine adipocytes.

With `CC(C)S(=O)(=O)Nc1cc(C(O)CNCCOc2ccc3c(c2)[nH]c2ccccc23)ccc1O` (racemic) [Example 54, (±)-N-[5-[2-[2-(9H-Carbazol-2-yloxy)ethylamino]-1-hydroxyethyl]-2-hydroxyphenyl]-2-propanesulfonamide Hydrochloride], on human β3, the pEC50 was 8.08 and the Emax stood at 109%. In addition, in the assay on canine adipocytes, the pEC50 was 7.60 and the Emax came to 118%.

On to `OCc1cc(C(O)CNCCOc2ccc3c(c2)[nH]c2ccccc23)ccc1O` (racemic) [Example 67, (±)-2-[N-[2-(9H-Carbazol-2-yloxy)ethyl]amino]-1-[4-hydroxy-3-(hydroxymethyl)phenyl]ethanol Hydrochloride], for which, at human β3, the pEC50 was 7.55 and the Emax turned out to be 109%. In addition, in the assay on canine adipocytes, the pEC50 was 7.27 and the Emax worked out at 94%.

Turning to `COC(CNCCOc1ccc2c(c1)[nH]c1ccccc12)c1ccc(N)c(NS(C)(=O)=O)c1` (racemic) [Example 92, (±)-N-[5-[2-[2-(9H-Carbazol-2-yloxy)ethylamino]-1-methoxyethyl]-2-aminophenyl]methanesulfonamide Hydrochloride], at human β3, the pEC50 is 6.55 and the Emax was found to be 81%. For the same compound, in the assay with canine adipocytes, the pEC50 is 5.72 and the Emax turned out to be 126%.

On to `O[C@@H](CNCCOc1ccc2c(c1)[nH]c1ccccc12)c1ccccc1` [Example 32, (R)-2-[N-[2-(9H-Carbazol-2-yloxy)ethyl]amino]-1-phenylethanol Hydrochloride], for which, at human β3, the pEC50 is 5.80 and the Emax is 98%. Also, in the assay with canine adipocytes, the pEC50 was 6.54 and the Emax amounted to 94%.

For `CS(=O)(=O)Nc1cc([C@@H](O)CNCCOc2ccc3c(c2)oc2ccccc23)ccc1O` [Example 69, (R)-N-[5-[2-[2-(Dibenzofuran-3-yloxy)ethylamino]-1-hydroxyethyl]-2-hydroxyphenyl]methanesulfonamide Hydrochloride], on human β3, the pEC50 is 10.80 and the Emax amounted to 94%. In the assay with canine adipocytes, the pEC50 is 9.19 and the Emax worked out at 107%.

On to `CC(=O)Nc1ccc2c(c1)Cc1cc(OCCNC[C@H](O)c3cccc(NS(C)(=O)=O)c3)ccc1-2` [Example 71, (R)-N-13-[2-[2-(9H-7-Acetylaminofluoren-2-yloxy)ethylamino]-1-hydroxyethyl]phenyl]methanesulfonamide Hydrochloride], for which the Emax on human β3 worked out at 97%; in the assay with canine adipocytes it was 88%. For the same compound, the pEC50 on human β3 (setting [1]) is 6.74; with canine adipocytes, 6.96.

As for `CS(=O)(=O)Nc1cc([C@@H](O)CNCCOc2ccc3c(c2)sc2ccccc23)ccc1O` [Example 72, (R)-N-[5-[2-[2-(Dibenzothiophen-3-yloxy)ethylamino]-1-hydroxyethyl]-2-hydroxyphenyl]methanesulfonamide Hydrochloride], the Emax on human β3 worked out at 80%. In addition, in the assay with canine adipocytes, the pEC50 was 9.27 and the Emax was determined as 96%.
